According to PMC10051477, “5,8-Dimethyl-9H-carbazole Derivatives Blocking hTopo I Activity and Actin Dynamics” (Pharmaceuticals, 2023):

Assays:
[1] = biological target: T1, F-actin (labeled rabbit muscle actin) (Oryctolagus cuniculus, UniProt P68135); test: In vitro F-actin depolymerization assay; format: biochemical; conditions: 5 µM added after 1 h polymerization, monitored 1 h; vehicle 20,000 RFU
T1 construct: fluorescent label (chemical); purchased Abcam; host or cells: rabbit muscle
Protocol: Moreover, we performed the F-actin depolymerization assay to verify whether compounds 3 and 4 could induce the actin depolymerization as well as the LA does (Figure 5, panel B). For this purpose, we started the actin polymerization for one hour under the same experimental conditions used previously. Then, we added the compounds or the reference molecules at the concentration of 5 µM and monitored the reactions for an additional hour. […] The addition of CB was not able to produce the same effect of LA. […] Contrarily, both the compounds were able to induce an important depolymerizing effect on the F-actin, most evident in the first 7 min after the exposure. Particularly, compounds 3 and 4 produced final values of approximately 14,000 and 12,000 RFU, respectively. […] This combined effect leads to a disorganization of the intracellular actin network.
An Actin Polymerization/Depolymerization Assay Kit, purchased from Abcam, was employed to assess the ability of compounds 3 and 4 to interfere with the actin polymerization and depolymerization processes. To perform the essays, the manufacturer’s instructions were followed with some modifications. In particular, polymerization assay was carried out incubating in a white 96-well plate the reconstituted actin with supplemented Buffer G, compounds 3 and 4 and then Buffer P was added in order to induce actin polymerization. For the Actin Depolymerization Assay, the actin polymerization was first induced, incubating supplemented Buffers P and G at room temperature for one hour. Then, compounds 3 and 4 were added at a concentration of 5 μM. Latrunculin A (LA) and Cytochalasin B (CB) were utilized as positive control at a concentration of 5 μM. For both the assays, the assemblage of the actin filaments was defined by measuring the fluorescence (Ex/Em: 365/410 nm) in kinetic mode for 1 h at room temperature in a microplate reader.

MDA-MB-231 cells = test: MTT assay, MDA-MB-231 cell viability; format: cell-based; conditions: Homo sapiens, 72 h, mean ± standard deviation
Protocol: The inhibition of cancer cell growth exerted by the five considered compounds (1–5) has been evaluated in vitro against two models of breast cancer, namely the estrogen receptor positive (ER+) MCF-7 and the triple negative MDA-MB-231 human breast cancer cells (lacking ER, PR, and HER-2/Neu amplification), together with the normal counterpart, namely the non-malignant breast epithelial cells MCF-10A. […] Moreover, no effects were recorded against the MCF-7 cells, at least until the concentration of 100 μM. […] Thus, the two lead compounds were chosen for subsequent studies aiming at individuating the molecular mechanisms underlying the observed anticancer activity.
(§1) MTT assays (Sigma Aldrich (St.Louis, MO, USA)) were employed to evaluate the in vitro anticancer activities of all the studied compounds, as previously described. The compounds were tested at different concentrations (0.1-1-10-25-50-100 μM) for 72 h. The IC50 values were calculated from the percent (%) of control using GraphPad Prism 9 (GraphPad Software, La Jolla, CA, USA).

MCF-7 cells = test: MTT assay, MCF-7 cell viability; format: cell-based; conditions: Homo sapiens, MCF7, 72 h, mean ± standard deviation
Protocol: as §1

[2] = system: actin system in MDA-MB-231 cells; test: Actin immunofluorescence in MDA-MB-231 cells; format: cell-based, human; conditions: MDA-MB-231, 24 h; compounds at their IC50 values, LA 0.1 µM
Protocol: In order to determine whether the lead compounds 3 and 4 may effectively regulate the actin system, we employed both the immunofluorescence and in vitro direct enzymatic assays. […] As negative and positive controls, we used the only vehicle (DMSO) and latrunculin A (LA) at a concentration of 0.1 µM, respectively. After processing, the cells were observed under a fluorescent microscope, (see experimental section for the details). […] Moreover, the latter looked brighter and stocked in the cytoplasm in dot-like structures or thicker fibers. Again, the MDA-MB-231 cells, under exposure to compounds 3 and 4, lost their shape (Figure 4, compounds 3 and 4, panels B), as we observed under LA treatment, and with a very similar arrangement of the actin network.
The cells were plated and further processed, as previously indicated. Specifically, the rabbit anti-β-Actin (Santa Cruz Biotechnology, Dallas, TX, USA), diluted 1:100 in bovine serum albumin (BSA) 2%, was used as primary antibody and incubated overnight at 4 °C. The secondary antibody, Alexa Fluor® 488 conjugate goat-anti-rabbit, was diluted 1:500 and incubated for 2 h at 37 °C. DAPI (4′,6-diamidino-2-phenylindole, Sigma Aldrich, Milan, Italy) 0.2 μg/mL was used for nuclei staining. A fluorescence microscope (Leica DM 6000) was utilized for fluorescence detection (40× magnification). LAS-X software allowed acquiring and processing all the fluorescence images, which are representative of three separate experiments.

F-actin depolymerization, final fluorescence value of reaction curve [1]	IC50 (MDA-MB-231 cells) [µM]	IC50 (MCF-7 cells) [µM]	SMILES	Effect on actin organization (immunofluorescence) [2]
~12,000 RFU	0.73 ± 0.74	19.8 ± 1.12	Cc1ccc(C)c2c1c1cc(O)ccc1n2C(=O)OC(C)(C)C [Compound 4]	interfere with the normal actin organization
approximately 14,000 RFU	1.44 ± 0.97	27.6 ± 0.71	Cc1ccc(C)c2c1c1cc(B(O)O)ccc1n2C(=O)OC(C)(C)C [Compound 3]	interfere with the normal actin organization
